What all share (assay type): cell-based
Test [1] has as its system MEK. Kind of test: MEK phosphorylation (S217/221) in SKOV3 cells, immunoblot and densitometry. How it is done: (§1) Cells were detached from their culture vessels by brief trypsinization, suspended in complete media and centrifuged at 250×g for 10 min at room temperature. The cell pellets were suspended in Dulbeco's phosphate buffered saline (DPBS) and re-centrifuged for a total of three washes. The cells were then re-suspended at 3.33E5/ml in 24 ml of either RPMI containing 0.5% BSA (Sigma Chem. Co. #A0336) (RPMI/BSA) or the conditioned media of growing NIH3T3 fibroblasts (10% FBS in DMEM) supplemented with 10 ng/ml vascular endothelial growth factor (VEGF) (CMN). The cells were then treated with or without 100 ug/ml soluble hyaluronic acid (HA; human umbilical, Calbiochem #385902) for 30 min at 37° C. under 5% CO2. Aliquots representing 2E6 cells were then plated into 10 cm culture dishes and A6 added to yield final concentrations of 0, 10, 100 and 1000 nM. The cells were cultured overnight (18 hr) at 37° C. under 5% CO2.
(§2) After 18 hr of treatment, the media were aspirated from the 10 cm dishes and saved. The plates were washed 3 times with 4 ml of ice-cold DPBS which were pooled with the reserved non-adherent cells. The non-adherent cells were centrifuged at 250×g for 10 min at 4° C., washed twice with cold DPBS, drained and lysed in 50 ul of cold RIPA buffer (ThermoScientific #89901) containing cocktails of broad spectrum phosphatase inhibitors (Calbiochem #524625; used at 2× final concentration) and protease inhibitors (Sigma #P8340) (RIPA/inh.). The 10 cm dishes were drained of remaining wash and the adherent cells lysed by scraping in 200 μL of cold RIPA/inh. For each test condition, the lysates of the non-adherent and adherent populations were combined, vortexed and then centrifuged at 14,000 rpm at 4° C. for 20 min. Aliquots of the cleared lysates were frozen at −80° C. immediately. A small aliquot was reserved for total protein analysis using a BCA Protein Assay Kit (Calbiochem #71285-3).
(§3) Samples representing 20 μg of total protein of each lysate were solubilized in the presence of 50 mM Tris pH 6.8, 10% glycerol, 2% SDS and 100 mM DTT for 5 min at 95° C. and then loaded onto 10-20% acrylamide gels (BioRad #345-0044, Tris-HCl, 1 mm, 26 well, 15 μL/well). Electrophoresis was performed using Laemli electrophoresis buffer (0.1% SDS, 25 mM Tris, 192 mM glycine) at 200 V, constant voltage, for one hour. Upon completion of electrophoresis, the proteins were transferred to Immun-Blot PVDF membranes (BioRad #162-0238) in ice-cold 20% methanol in 25 mM Tris, 192 mM glycine for 2 hr at 0.5 Amps, constant current/blotting apparatus. […]
(§4) The integrated densities (id) of the bands of interest were measured using Image J software (NIH). […]

Test [2] deals with ERK 1/2. In words: ERK 1/2 phosphorylation (T202/Y204) in SKOV3 cells, immunoblot. As to conditions: basal media (RPMI/BSA). How it is done:
as §1, §2
(§5) Samples representing 20 μg of total protein of each lysate were solubilized in the presence of 50 mM Tris pH 6.8, 10% glycerol, 2% SDS and 100 mM DTT for 5 min at 95° C. and then loaded onto 10-20% acrylamide gels (BioRad #345-0044, Tris-HCl, 1 mm, 26 well, 15 μL/well). Electrophoresis was performed using Laemli electrophoresis buffer (0.1% SDS, 25 mM Tris, 192 mM glycine) at 200 V, constant voltage, for one hour. Upon completion of electrophoresis, the proteins were transferred to Immun-Blot PVDF membranes (BioRad #162-0238) in ice-cold 20% methanol in 25 mM Tris, 192 mM glycine for 2 hr at 0.5 Amps, constant current/blotting apparatus. The membranes were then cut vertically between molecular weight markers and in half at the 64 kDa marker to generate pieces for screening of higher molecular weight proteins (e.g., FAK) and lower molecular weight proteins (e.g., MEK and GAPDH). The blots were then blocked for a minimum of 4 hrs at room temperature in 3% bovine serum albumin (Sigma A0336) in 50 mM Tris, pH 7.4, 145 mM NaCl, 0.05% Tween-20 (TTBS) containing 0.05% sodium azide.
Upon completion of the primary antibody incubation, the blots were washed three times for 10 min in TTBS and then incubated with 1/25,000 dilutions of peroxidase-conjugated donkey anti-mouse IgG (Jackson ImmunoResearch #715-035-150) or peroxidase-conjugated donkey anti-rabbit IgG (Jackson ImmunoResearch #711-035-152) in TTBS containing 3% BSA for one hour at room temperature. […]
For orientation: Immunoblotting shows a protein as a band on a membrane.

Test [3] has as its system FAK. In words: FAK phosphorylation in SKOV3 cells, immunoblot and densitometry. The note with it: SKOV3, all conditions; Y397, Y576/577, Y925. How it is done:
as §1, §2, §3, §4

The test system of test [4] is PKCalpha. Kind of test: PKCalpha phosphorylation in SKOV3 cells, immunoblot. How it is done:
as §1, §2
as §5, with “The blots were then blocked for a minimum of 4 hrs at room temperature in 3% bovine serum albumin (Sigma A0336) in 50 mM Tris, pH 7.4, 145 mM NaCl, 0.05% Tween-20 (TTBS) containing 0.05% sodium azide.” left out

The test system of test [5] is SKOV3 cells. In words: Boyden chamber chemotaxis/migration of SKOV3 cells. The note with it: SKOV3. How it is done: A2780 (FIG. 10a) and SKOV3 (FIG. 10b) cells were incubated with the indicated concentrations of Å6 peptide for 30 min at 37° C. Aliquots representing 6,000 cells were placed on quadruplicate, CnI-coated filters (8 μm pores) in Boyden chambers and the cells allowed to migrate overnight in response to 10 ng/ml VEGF in NIH3T3-conditioned media containing the indicated concentrations of Å6. Upon completion of migration, the apical surfaces of the membranes were wiped clean and the migrating cells on the basal surface were stained with Geimsa stain and the cells present in representative fields of the membranes counted. Data represent the averages+/−standard deviations obtained from the replicate filters. […] This provides further confirmation that CD44 is the target for the Å6 peptide.
SKOV3 cells are harvested by trypsinization and washed once with RPMI−0.5% BSA. Next, the cells are re-suspended in RPMI+0.5% BSA @ 6E4/mL (6000 cells/100 μL). The peptide is pre-treated with 500 μL of cells added to 500 μL peptide NASAPPEE (2× concentration, final conc. at 100, 10, 1, 0.1, 0.01, 0.001 uM) and the mixture incubated 30 minutes at 37° C., under 5% CO2. The Boyden chamber is assembled by: Placing in the bottom chambers: 220 μL of serum/BSA free DMEM or NIH3T3CM+10 ng/ml VEGF or NIH3T3CM+10 ng/ml VEGF+peptide. Place 8 μm filters on the top of the bottom chambers. The 8 μm filters are coated with 1 mg/ml collagen I at 4° C. overnight, washed with PBS twice, air dry before use. Add 200 μL of cells with or without peptide pretreatment to the top of Boyden chamber. Note that the peptide is in both top and bottom chambers. Cells migrate overnight at 37° C., under 5% CO2 in incubator. Next, Boyden chambers are disassembled the and filters collected. The cells on the filters after collection are treated with −20° C. methanol for 3 minutes at room temperature and stained with 30% Geimsa for 7 minutes at room temperature, and washed with water twice. The filters are mounted on slides, air dried and the cells counted.
Cell numbers were obtained by counting the cells in four fields of filters using a 40× objective. The cells migrating into the bottom chambers were also counted as follows: a) 200 μL fluid in the bottom chamber was transferred to a well of 96-well plate; b) The plate was centrifuged at 1200 rpm for 5 minutes; c) 180 μL of supernatant was removed; d) The cell pellet was resuspended with the remaining 20 μL fluid and the cells counted using a hemocytometer. […] This compares favorably to the Å6 peptide which is effective between 5 μM and 100 nM.

For “hyaluronic acid [HA, reference compound]”, the “total MEK levels” value in test [1] is recorded as “appears to have decreased”. In addition, the pMEK/MEK entry in test [1] (under all conditions) is reported as “increased”. In addition, the pERK/Erk result in test [2] was “increased”. The pFAK/FAK ratios result in test [3] is “reduced”. Further, in test [4], the pPCKa/PKCa entry is reported as “appears to have enhanced”.

“NASAPPEE (peptide which potentiates the binding of CD44 polypeptide expressing cells to hyaluronic acid (HA)) [corresponds to amino acids 120-127 of CD44]”: in test [5], the “cell migration inhibition, lower end of effective concentration range” value worked out at 1 nM and the “cell migration inhibition, upper end of effective concentration range” value amounted to 100 µM.

The values are drawn from patent US8697629B2, “Modulation of intracellular signaling” (Angstrom Pharmaceuticals, Inc., priority 2010, dated 2014).
